Results from patent US20100234226A1, “HERBICIDE COMBINATION COMPRISING DIMETHOXYTRIAZINYL-SUBSTITUTED DIFLUOROMETHANESULFONYLANILIDES” (BAYER CROPSCIENCE AG, priority 2008, published 2010).
Read-outs that look alike come from different tables or passages of the source.

Legend:
Format in all cases: in vivo
Zea mays (ZEAMX) = experiment: Post-emergence action against weeds, greenhouse pot test, Zea mays; conditions: Zea mays, post-emergence, read-out: % activity found; for inhibition at 12 g/ha: 12 g of ai/ha; for inhibition at 36 g/ha: 36 g of ai/ha
Protocol: (§1) Seeds or rhizome pieces of mono- and dicotyledonous harmful and useful plants were placed in peat pots (diameter 4 cm) filled with sandy loam and then covered with soil. The pots were kept in a greenhouse under optimum conditions. In addition, harmful plants encountered in paddy rice cultivation were cultivated in pots with a water level 2 cm above the soil surface.
(§2) About three weeks after the start of the cultivation, the test plants were treated at the 2- to 3-leaf stage. The herbicides, formulated as powder or liquid concentrates, were, either alone or in the combinations according to the invention, sprayed in various dosages on to the green parts of the plants using an application rate of 600 l of water/ha (converted). For further cultivation of the plants, the pots were then again kept under optimum conditions in a greenhouse.
(§3) The visual scoring of the herbicidal effects was carried out in intervals up to 21 days after the treatment. Scoring was carried out in percent in comparison to the untreated control plants. 0%=no herbicidal activity, 100%=complete herbicidal activity=complete kill.
(§4) The percentages from the treatments with the herbicides alone (=individual application) and with the combinations according to the invention (=mixtures) were employed to calculate interactions using the method of Colby. When the observed efficacies of the mixtures exceed the formal sum of the values of the tests with individual applications, they also exceed the expected value according to Colby, which is calculated using the formula below (cf. S. R. Colby; in Weeds 15 (1967) pp. 20 to 22):
(§5) Here: • A, B=activity of components A and B in percent at a dosage of a and b g of ai/ha (=gramm of active substance per hectare), respectively. • E=expected value in % at a dosage of a+b g of ai/ha.
(§6) The combinations according to the invention of herbicides from group (A) with herbicides from group (B) were tested on a broad spectrum of important harmful plants (weed grasses, broad-leaved weeds/Cyperaceae) and useful plants: Triticum aestivum (TRZAS), Stellaria media (STEME), Lolium multiflorum (LOLMU), Veronica persica (VERPE), Alopecurus myosuroides (ALOMY), Matricaria inodora (MATIN), Brassica napus (BRSNW), Viola tricolor (VIOTR), Avena fatua (AVEFA), Amaranthus retroflexus (AMARE), Zea mays (ZEAMX), Pharbitis purpurea (PHBPU), Setaria viridis (SETVI), Fallopia (ex Polygonum) convolvulus (POLCO), Echinochloa crus-gaffi (ECHCG), Abuthilon theophrasti (ABUTH), Cyperus esculentus (CYPES), Oryza sativa (ORYSA).
(§7) Of particular interest are the results shown in the tables (Tab.) below, where the following key is used: • (1) EPPO code (former Bayer code) for the treated plant (see above) • (2) Time of scoring: DAT (days after treatment) • (3) Component A tested (identifying number) • (4) Component B tested (identifying number) • (5) Dosage component A [g of ai/ha] • (6) Dosage component B [g of ai/ha] • (7) % activity found • (8) E value (calculated according to Colby; see above) • (9) Comments: “SYNERGY”=synergistic interaction (E value <% activity found); “SAFENING”=safener action on useful plant (E value >% activity found)

[1] = test system: Lolium multiflorum (LOLMU); experiment: Post-emergence action against weeds, greenhouse pot test, Lolium multiflorum; conditions: 12 g of ai/ha, read-out: % activity found
Protocol: as §1, §2, §3, §4, §5, §6, §7

Veronica persica (VERPE) = experiment: Post-emergence action against weeds, greenhouse pot test, Veronica persica; conditions: read-out: % activity found; for inhibition at 12 g/ha: 12 g of ai/ha; for inhibition at 36 g/ha: 36 g of ai/ha
Protocol: as §1, §2, §3, §4, §5, §6, §7

[2] = test system: Matricaria inodora (MATIN); experiment: Post-emergence action against weeds, greenhouse pot test, Matricaria inodora; conditions: Tripleurospermum inodorum, post-emergence, read-out: % activity found; for inhibition at 36 g/ha: 36 g of ai/ha
Protocol: as §1, §2, §3, §4, §5

Setaria viridis (SETVI) = experiment: Post-emergence action against weeds, greenhouse pot test, Setaria viridis; conditions: 504 h, 21 DAT, read-out: % activity found
Protocol: as §1, §2, §3, §4
(§8) Here: • A, B=activity of components A and B in percent at a dosage of a and b g of ai/ha (=gramm of active substance per hectare), respectively. • E=expected value in % at a dosage of a+b g of ai/ha. […]

[3] = test system: Fallopia (ex Polygonum) convolvulus (POLCO); experiment: Post-emergence action against weeds, greenhouse pot test, Fallopia convolvulus; conditions: Fallopia convolvulus, post-emergence, 504 h, 21 DAT, read-out: % activity found
Protocol: as §1, §2, §3, §4, §5, §6, §7

Viola tricolor (VIOTR) = experiment: Post-emergence action against weeds, greenhouse pot test, Viola tricolor; conditions: Viola tricolor, post-emergence, read-out: % activity found; for inhibition at 12 g/ha: 12 g of ai/ha
Protocol: as §1, §2, §3, §4, §5, §6, §7

[4] = test system: Amaranthus retroflexus (AMARE); experiment: Post-emergence action against weeds, greenhouse pot test, Amaranthus retroflexus; conditions: read-out: % activity found; for inhibition at 12 g/ha: 12 g of ai/ha; for inhibition at 36 g/ha: 36 g of ai/ha
Protocol: as §1, §2, §3, §4, §5, §6, §7

[5] = test system: Pharbitis purpurea (PHBPU); experiment: Post-emergence action against weeds, greenhouse pot test, Pharbitis purpurea; conditions: Ipomoea purpurea, read-out: % activity found; for inhibition at 12 g/ha: 12 g of ai/ha
Protocol: as §1, §2, §3, §4, §5, §6, §7

[6] = test system: Cyperus esculentus (CYPES); experiment: Post-emergence action against weeds, greenhouse pot test, Cyperus esculentus; conditions: Cyperus esculentus, post-emergence, read-out: % activity found; for inhibition at 12 g/ha: 12 g of ai/ha
Protocol: as §1, §2, §3, §4, §5

Oryza sativa (ORYSA) = experiment: Post-emergence action against weeds, greenhouse pot test, Oryza sativa; conditions: 240 h, 10 DAT, read-out: % activity found
Protocol: as §1
as §2, with “greenhouse. […]” for “greenhouse.”
as §4, with “22): […]” for “22):”

[7] = test system: Triticum aestivum (TRZAS); experiment: Post-emergence action against weeds, greenhouse pot test, Triticum aestivum; conditions: 504 h, 21 DAT, read-out: % activity found
Protocol: as §1, §2, §3, §4, §8

Avena fatua (AVEFA) = experiment: Post-emergence action against weeds, greenhouse pot test, Avena fatua; conditions: read-out: % activity found; for inhibition at 100 g/ha: 100 g of ai/ha
Protocol: as §1, §2, §3, §4, §8, §7

[8] = test system: Alopecurus myosuroides (ALOMY); experiment: Post-emergence action against weeds, greenhouse pot test, Alopecurus myosuroides; conditions: 504 h, 21 DAT, 100 g of ai/ha, read-out: % activity found
Protocol: as §1
as §2, with “greenhouse. […]” for “greenhouse.”
as §4, with “22): […]” for “22):”

Cc1ccccc1CO[C@@H]1C[C@@]2(C(C)C)CC[C@]1(C)O2 (racemic) [B-24, exo-(±)-1-methyl-4-(1-methylethyl)-2-[(2-methylphenyl)methoxy]-7-oxabicyclo[2.2.1]heptane]
inhibition at 12 g/ha (Zea mays (ZEAMX); 240 h, 10 DAT): 0%
inhibition at 36 g/ha (Zea mays (ZEAMX); 240 h, 10 DAT): 20%
inhibition at 12 g/ha (Zea mays (ZEAMX); 504 h, 21 DAT): 0%
inhibition at 36 g/ha (Zea mays (ZEAMX); 504 h, 21 DAT): 0%
inhibition at 12 g/ha ([1]; 240 h, 10 DAT): 40%
inhibition at 12 g/ha ([1]; 504 h, 21 DAT): 20%
inhibition at 12 g/ha (Veronica persica (VERPE); 240 h, 10 DAT): 0%
inhibition at 36 g/ha (Veronica persica (VERPE); 240 h, 10 DAT): 0%
inhibition at 12 g/ha (Veronica persica (VERPE); 504 h, 21 DAT): 0%
inhibition at 36 g/ha (Veronica persica (VERPE); 504 h, 21 DAT): 0%
inhibition at 36 g/ha ([2]; 240 h, 10 DAT): 0%
inhibition at 12 g/ha ([2]; 504 h, 21 DAT, 12 g of ai/ha): 0%
inhibition at 36 g/ha ([2]; 504 h, 21 DAT): 0%
inhibition at 12 g/ha (Setaria viridis (SETVI); 12 g of ai/ha): 30%
inhibition at 36 g/ha (Setaria viridis (SETVI); 36 g of ai/ha): 50%
inhibition at 12 g/ha ([3]; 12 g of ai/ha): 0%
inhibition at 36 g/ha ([3]; 36 g of ai/ha): 0%
inhibition at 12 g/ha (Viola tricolor (VIOTR); 240 h, 10 DAT): 0%
inhibition at 36 g/ha (Viola tricolor (VIOTR); 240 h, 10 DAT, 36 g of ai/ha): 0%
inhibition at 12 g/ha (Viola tricolor (VIOTR); 504 h, 21 DAT): 0%
inhibition at 12 g/ha ([4]; 240 h, 10 DAT): 0%
inhibition at 36 g/ha ([4]; 240 h, 10 DAT): 0%
inhibition at 12 g/ha ([4]; 504 h, 21 DAT): 0%
inhibition at 36 g/ha ([4]; 504 h, 21 DAT): 0%
inhibition at 12 g/ha ([5]; 240 h, 10 DAT): 0%
inhibition at 12 g/ha ([5]; 504 h, 21 DAT): 0%
inhibition at 36 g/ha ([5]; 504 h, 21 DAT, 36 g of ai/ha): 0%
inhibition at 12 g/ha ([6]; 240 h, 10 DAT): 0%
inhibition at 12 g/ha ([6]; 504 h, 21 DAT): 0%
inhibition at 36 g/ha ([6]; 504 h, 21 DAT, 36 g of ai/ha): 20%
inhibition at 12 g/ha (Oryza sativa (ORYSA); 12 g of ai/ha): 0%
inhibition at 36 g/ha (Oryza sativa (ORYSA); 36 g of ai/ha): 20%
inhibition at 12 g/ha ([7]; 12 g of ai/ha): 0%
inhibition at 36 g/ha ([7]; 36 g of ai/ha): 10%
inhibition at 12 g/ha (Avena fatua (AVEFA); 504 h, 21 DAT, 12 g of ai/ha): 0%

CC1(C)CON(Cc2ccccc2Cl)C1=O [B-26, 2-[(2-chlorophenyl)methyl]-4,4-dimethyl-3-isoxazolidinone]
inhibition at 100 g/ha (Zea mays (ZEAMX); 504 h, 21 DAT, 100 g of ai/ha): 0%
inhibition at 300 g/ha (Zea mays (ZEAMX); 504 h, 21 DAT, 300 g of ai/ha): 30%
inhibition at 100 g/ha ([2]; 10/21 DAT, 100 g of ai/ha): 40%
inhibition at 300 g/ha (Viola tricolor (VIOTR); 240 h, 10 DAT, 300 g of ai/ha): 50%
inhibition at 100 g/ha ([5]; 504 h, 21 DAT, 100 g of ai/ha): 0%
inhibition at 300 g/ha ([5]; 504 h, 21 DAT, 300 g of ai/ha): 0%
inhibition at 100 g/ha ([6]; 504 h, 21 DAT, 100 g of ai/ha): 0%
inhibition at 300 g/ha ([6]; 504 h, 21 DAT, 300 g of ai/ha): 0%
inhibition at 100 g/ha (Avena fatua (AVEFA); 240 h, 10 DAT): 10%
inhibition at 100 g/ha (Avena fatua (AVEFA); 504 h, 21 DAT): 10%
inhibition at 300 g/ha (Avena fatua (AVEFA); 504 h, 21 DAT, 300 g of ai/ha): 30%
inhibition at 100 g/ha [8]: 0%
